Consider two compounds from US6028222A (priority 1996, dated 2000).

The structures appear in SMILES notation.

A short description of data set [1]: HPLC assay of paracetamol and codein before and after autoclaving. Particulars: for assay, after sterilization: 121° C. 20 minutes.
For data set [2] the following is noted: cited from earlier work.
Data set [3] in a line: Solubility of paracetamol in dilute solutions (absorbance at 240 nm of filtrate). The format is physicochemical.
The conditions of data set [4]: aqueous solution; cited from earlier work.
Data set [5] is described as follows: Predicted time to 5% decrease in paracetamol concentration (Arrhenius law). Particulars: 25° C., optimal pH, aqueous solution; predicted by Arrhenius law. The format is physicochemical.
Data set [6] in a line: Paracetamol instability in solution and breakdown products. The format is physicochemical. Particulars: in water or in solution no 20.
Data set [7] is described as follows: pH stability of concentrated paracetamol solution. The format is physicochemical. As for the experimental part:
Vials that had been filled under nitrogen atmosphere by dispensing 10 ml of such solutions, tightly stoppered and capped, were sterilized by autoclaving at 121° C. for 20 minutes, and then in every case exposed, either to a temperature of 105° C. in the dark for 72 hours, or to a radiation of an actinic light at 5000° K. and 25° C. during 264 hours.

The conditions of data set [8]: toxic metabolite of paracetamol; cited from earlier work.
[9] abbreviates: containing 0.5 mg/ml of cystein hydrochloride.
[10] abbreviates: no free radical scavenger added.

Turning to `CC(=O)Nc1ccc(O)cc1` [paracetamol, N-acetyl-p-aminophenol], in data set [1] (setting [9]), the “assay, non sterilized solution” value turned out to be 0.0082 g/mL and the “assay, after sterilization” value stood at 0.0081 g/mL. Besides, in data set [1] (setting [10]), the “assay, non sterilized solution” value stood at 0.0078 g/mL and the “assay, after sterilization” value worked out at 0.0077 g/mL. In data set [2] (0.1% aqueous solution, dark, 120 days), the “p-aminophen content from hydrolysis, % of initial paracetamol concentration” value was ~19,8%. Further, the “ammonia yield with EDTA added” value in data set [2] (1000 ppm of ascorbic acid + EDTA (0.0075%)) is listed as at most 14%. Further, the “ammonia yield upon exposure to bright light” value in data set [2] (1000 ppm of ascorbic acid) was 98%. Moreover, the “decomposition rate with EDTA” value in data set [2] (EDTA 0.0075%, 0.1% aqueous solution) was 7%. Moreover, in data set [2] (in presence or not of 1000 ppm of ascorbic acid), the “ammonia concentration on distilling an alkaline solution” value is listed as 14%. In addition, the “effect of PEG on paracetamol solubility” value in data set [3] is listed as “increased by the presence of PEG”. Moreover, the “pH of minimal breakdown” value in data set [4] is given as around 6. In data set [5], the “time needed to observe a 5% decrease in paracetamol concentration” value is 19 months. For the same compound, in data set [6] (50° C.), the “time to color development” value is 2 weeks. For the same compound, the “color upon exposure to light or storage at high temperature” value in data set [6] is “shows rapidly a pink color”. Also, the “Color development upon storage in the presence of light” value in data set [7] (pH 7,0 (actual pH 5,8), actinic light, 264 hours) was “extremely weak”. Besides, the “effect of pH on paracetamol content and breakdown products” value in data set [7] (storage in the presence of light) is “Neither the paracetamol content, nor the breakdown products are affected by pH”.

For `CC(=O)N=C1C=CC(=O)C=C1` [N-acetyl-p-benzoquinone-imine], in data set [8], the toxic effect result is “cytotoxic and hemolytic effect”.
